Data as given in BindingDB's records for doi:10.1016/j.ejmech.2017.02.004 (China Pharmaceutical University, 2017).

Legend:
[1] = Substrate activity at CPR in human L02 cells assessed as CPR-mediated one-electron reduction of compound by measuring cell growth inhibition treated for 24 hrs measured after 72 hrs by MTT assay
[2] = Substrate activity at NQO1 in human A549 cells assessed as NQO1-mediated two-electron reduction of compound by measuring cell growth inhibition treated for 24 hrs measured after 72 hrs by MTT assay
[3] = Substrate activity at NQO1 in human H1299 cells assessed as NQO1-mediated two-electron reduction of compound by measuring cell growth inhibition treated for 24 hrs measured after 72 hrs by MTT assay
[4] = Substrate activity at NQO1 in human HCT116 cells assessed as NQO1-mediated two-electron reduction of compound by measuring cell growth inhibition treated for 24 hrs measured after 72 hrs by MTT assay
[5] = Substrate activity at NQO1 in human H1650 cells assessed as NQO1-mediated two-electron reduction of compound by measuring cell growth inhibition treated for 24 hrs measured after 72 hrs by MTT assay
[6] = Substrate activity at NQO1 in human MCF7 cells assessed as NQO1-mediated two-electron reduction of compound by measuring cell growth inhibition treated for 24 hrs measured after 72 hrs by MTT assay
[7] = Substrate activity at NQO1 in human HepG2 cells assessed as NQO1-mediated two-electron reduction of compound by measuring cell growth inhibition treated for 24 hrs measured after 72 hrs by MTT assay
[8] = Substrate activity at NQO1 in human H522 cells assessed as NQO1-mediated two-electron reduction of compound by measuring cell growth inhibition treated for 24 hrs measured after 72 hrs by MTT assay

Cc1ccc2c(c1)-c1occ(C)c1C(=O)C2=O
IC50 [1]: 6.3 µM | IC50 [2]: 4.1 µM

Cc1coc2c1C(=O)C(=O)c1c(C)ccc(C)c1-2
IC50 [1]: 17 µM | IC50 [2]: 2.9 µM

Cc1cc2c(cc1C)-c1occ(C)c1C(=O)C2=O
IC50 [3]: 4.9 µM | IC50 [4]: 4.4 µM | IC50 [2]: 3.3 µM | IC50 [5]: 9.3 µM | IC50 [6]: 2400 nM | IC50 [7]: 2500 nM | IC50 [8]: 4.8 µM

Cc1ccc2c(c1)C(=O)C(=O)c1c(C)coc1-2
IC50 [1]: 22 µM | IC50 [2]: 8.5 µM

Cc1cc2c(cc1C)-c1occc1C(=O)C2=O
IC50 [2]: 3.1 µM

CCc1coc2c1C(=O)C(=O)c1cc(C)ccc1-2
IC50 [1]: 25 µM | IC50 [2]: 3.1 µM

COc1ccc2c(c1)C(=O)C(=O)C1=C2OC(C)C1(C)C (centres undefined)
IC50 [1]: 30 µM

COc1ccc2c(c1)C1=C(C(=O)C2=O)C(C)(C)C(C)O1 (centres undefined)
IC50 [2]: 5.8 µM

COc1cccc2c1C1=C(C(=O)C2=O)C(C)(C)C(C)O1 (centres undefined)
IC50 [1]: 19 µM
